Laboratory results published in ChEMBL document CHEMBL3091273, “Sulphonamide 1,4-dithia-7-azaspiro[4,4]nonane derivatives as gelatinase A inhibitors” (Bioorg Med Chem, 2013).
Activity calls are given as the source filed them. No cut-off for these calls is given here.

What was measured:
[1] = target: T1, Aminopeptidase N (Sus scrofa, UniProt P15145); assay: Inhibition of pig kidney microsomal APN using L-Leu-p-nitroanilide as substrate preincubated for 30 mins by UV-vis spectrophotometry
T1 sequence (P15145 whole entry): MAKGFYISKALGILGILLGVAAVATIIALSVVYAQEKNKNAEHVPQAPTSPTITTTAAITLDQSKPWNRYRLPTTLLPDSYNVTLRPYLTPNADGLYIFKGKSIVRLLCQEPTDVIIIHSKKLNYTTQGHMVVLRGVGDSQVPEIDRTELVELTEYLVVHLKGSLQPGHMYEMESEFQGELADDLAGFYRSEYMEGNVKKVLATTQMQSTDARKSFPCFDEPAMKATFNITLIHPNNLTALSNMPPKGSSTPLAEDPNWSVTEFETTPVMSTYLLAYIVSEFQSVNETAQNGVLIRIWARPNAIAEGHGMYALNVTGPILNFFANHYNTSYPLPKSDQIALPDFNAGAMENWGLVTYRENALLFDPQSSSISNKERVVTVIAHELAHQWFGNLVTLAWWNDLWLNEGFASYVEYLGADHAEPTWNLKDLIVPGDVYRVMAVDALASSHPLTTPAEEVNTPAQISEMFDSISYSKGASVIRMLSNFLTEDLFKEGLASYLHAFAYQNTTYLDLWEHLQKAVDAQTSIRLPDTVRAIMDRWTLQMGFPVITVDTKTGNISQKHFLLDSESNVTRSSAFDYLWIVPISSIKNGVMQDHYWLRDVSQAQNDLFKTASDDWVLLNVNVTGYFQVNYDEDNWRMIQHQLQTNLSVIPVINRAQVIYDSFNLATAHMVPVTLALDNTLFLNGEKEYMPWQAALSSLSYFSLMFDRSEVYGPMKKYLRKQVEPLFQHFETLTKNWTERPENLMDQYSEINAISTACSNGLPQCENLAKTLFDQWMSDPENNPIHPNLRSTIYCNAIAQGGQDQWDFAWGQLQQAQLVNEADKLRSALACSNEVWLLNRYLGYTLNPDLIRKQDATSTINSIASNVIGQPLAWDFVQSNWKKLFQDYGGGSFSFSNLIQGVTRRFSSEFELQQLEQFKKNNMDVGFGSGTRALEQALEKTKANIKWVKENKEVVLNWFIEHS

[2] = target: 72 kDa type IV collagenase (Homo sapiens, UniProt P08253); assay: Inhibition of gelatinase A (unknown origin) after 30 mins by spectrophotometry
Sequence of 72 kDa type IV collagenase (P08253 whole entry): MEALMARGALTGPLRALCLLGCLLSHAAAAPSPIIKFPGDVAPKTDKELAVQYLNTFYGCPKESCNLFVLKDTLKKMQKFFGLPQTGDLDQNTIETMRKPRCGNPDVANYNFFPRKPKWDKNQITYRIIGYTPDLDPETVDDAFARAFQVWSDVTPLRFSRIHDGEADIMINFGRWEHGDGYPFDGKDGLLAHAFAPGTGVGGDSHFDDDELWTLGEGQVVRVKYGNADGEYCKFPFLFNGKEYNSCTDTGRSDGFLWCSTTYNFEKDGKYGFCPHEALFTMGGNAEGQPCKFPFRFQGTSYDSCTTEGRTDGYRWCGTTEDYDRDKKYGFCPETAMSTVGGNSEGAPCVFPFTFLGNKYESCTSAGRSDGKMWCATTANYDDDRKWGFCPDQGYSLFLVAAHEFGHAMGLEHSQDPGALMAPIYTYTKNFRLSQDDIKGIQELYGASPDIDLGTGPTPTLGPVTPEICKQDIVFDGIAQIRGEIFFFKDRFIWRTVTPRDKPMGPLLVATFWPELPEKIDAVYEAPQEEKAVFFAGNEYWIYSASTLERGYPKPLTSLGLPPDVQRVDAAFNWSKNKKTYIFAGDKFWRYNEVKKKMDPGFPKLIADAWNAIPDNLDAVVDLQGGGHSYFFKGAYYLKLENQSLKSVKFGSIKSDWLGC

[3] = system: Mus musculus; assay: Toxicity in […] cells xenografted Kunming mouse assessed as change in body weight at 50 mg/kg, po administered 6 days a week for two consecutive weeks (reference value: 26.03 +/- 5.04 grams); assay type: organism-based; parameters: dose 50 mg/kg, route oral; conditions: in vivo, 144 h
[4] = system: H22; assay: Antimetastatic activity in […] cells xenografted Kunming mouse assessed as lung weight at 50 mg/kg, po administered 6 days a week for two consecutive weeks (reference value: 0.223 +/- 0.067 grams); assay type: functional
[5] = system: H22; assay: Antimetastatic activity in […] cells xenografted Kunming mouse assessed as inhibition of tumor nodules formation at 50 mg/kg, po administered 6 days a week for two consecutive weeks; assay type: functional; conditions: H22, 144 h
[6] = system: K562; assay: Antiproliferative activity against human K562 cells after 48 hrs by MTT assay; assay type: functional, cell-based
[7] = system: SK-OV-3; assay: Antiproliferative activity against human SKOV3 cells after 48 hrs by MTT assay; assay type: functional, cell-based; conditions: SK-OV-3, 48 h
[8] = system: HL-60; assay: Antiproliferative activity against human HL60 cells after 48 hrs by MTT assay; assay type: functional, cell-based

Structure (SMILES) | IC50 [1] | IC50 [2] [nM] | also measured
COC(=O)[C@@H]1CC2(CN1S(=O)(=O)c1ccc([N+](=O)[O-])cc1)SCCS2 | Not Active | 77900 | –
O=C(NO)[C@@H]1CC2(CN1S(=O)(=O)c1ccccc1)SCCS2 | Not Active | 877 | –
COc1ccc(S(=O)(=O)N2CC3(C[C@H]2C(=O)NNC(=O)Cc2ccccc2)SCCS3)cc1 | Not Active | 386 | –
O=C(NO)[C@@H]1CC2(CN1S(=O)(=O)c1ccc([N+](=O)[O-])cc1)SCCS2 | Not Active | 786 | –
CCOC(=O)CNC(=O)[C@@H]1CC2(CN1S(=O)(=O)c1ccc(C)cc1)SCCS2 | Not Active | 530 | –
CCOC(=O)CNC(=O)[C@@H]1CC2(CN1S(=O)(=O)c1ccccc1)SCCS2 | Not Active | 678 | –
O=C(Cc1ccccc1)NNC(=O)[C@@H]1CC2(CN1S(=O)(=O)c1ccc([N+](=O)[O-])cc1)SCCS2 | Not Active | 1800 | –
Cc1ccc(S(=O)(=O)N2CC3(C[C@H]2C(=O)NO)SCCS3)cc1 | Not Active | 678 | –
Cc1ccc(S(=O)(=O)N2CC3(C[C@H]2C(=O)NN)SCCS3)cc1 | Not Active | 429000 | –
NNC(=O)[C@@H]1CC2(CN1S(=O)(=O)c1ccc([N+](=O)[O-])cc1)SCCS2 | Not Active | 20600 | –
COC(=O)[C@@H]1CC2(CN1S(=O)(=O)c1ccccc1)SCCS2 | Not Active | 3090 | –
O=C(Cc1ccccc1)NNC(=O)[C@@H]1CC2(CN1S(=O)(=O)c1ccccc1)SCCS2 | Not Active | 5440 | –
CCOC(=O)CNC(=O)[C@@H]1CC2(CN1S(=O)(=O)c1ccc([N+](=O)[O-])cc1)SCCS2 | Not Active | 325 | –
NNC(=O)[C@@H]1CC2(CN1S(=O)(=O)c1ccccc1)SCCS2 | Not Active | 6560 | –
COc1ccc(/C=C/C(=O)N2CC(NC(=O)c3cccnc3)CC2C(=O)NO)cc1OC (configuration not stated) | Not Active | 1020 | –
Cc1ccc(S(=O)(=O)N2CC3(C[C@H]2C(=O)NNC(=O)Cc2ccccc2)SCCS3)cc1 | Not Active | 679 | Activity [3]: 27.9 g; Activity [4]: 0.27 g; inhibition in vivo at 50 mg/kg [5]: 34.3%; Activity [6]: inactive; IC50 [7]: 150000 nM; Activity [8]: inactive

More lines, main results first:

IC50 [1] | IC50 [2] [nM] | Structure (SMILES) | also measured
Not Active | 9480 | COc1ccc(S(=O)(=O)N2CC3(C[C@H]2C(=O)O)SCCS3)cc1 | –
Not Active | 10800 | COc1ccc(S(=O)(=O)N2CC3(C[C@H]2C(=O)NN)SCCS3)cc1 | –
Not Active | 325 | CCOC(=O)CNC(=O)[C@@H]1CC2(CN1S(=O)(=O)c1ccc(OC)cc1)SCCS2 | –
Not Active | 878 | COC(=O)[C@@H]1CC2(CN1S(=O)(=O)c1ccc(C)cc1)SCCS2 | –
Not Active | 7480 | COC(=O)[C@@H]1CC2(CN1S(=O)(=O)c1ccc(OC)cc1)SCCS2 | –
Not Active | 28200 | O=C(O)[C@@H]1CC2(CN1S(=O)(=O)c1ccccc1)SCCS2 | –
Not Active | 2780 | Cc1ccc(S(=O)(=O)N2CC3(C[C@H]2C(=O)O)SCCS3)cc1 | –
Not Active | 835 | O=C(O)[C@@H]1CC2(CN1S(=O)(=O)c1ccc([N+](=O)[O-])cc1)SCCS2 | Activity [3]: 25.59 g; Activity [4]: 0.288 g; inhibition in vivo at 50 mg/kg [5]: 26.3%; Activity [6]: inactive; IC50 [7]: 210000 nM; Activity [8]: inactive
Not Active | 516 | COc1ccc(S(=O)(=O)N2CC3(C[C@H]2C(=O)NO)SCCS3)cc1 | –
